Laboratory results reported in patent publication US20260317325A1, “AMORPHOUS SUBSTANCE AND CRYSTAL OF DIOXOPIPERIDINE COMPOUND OR PHARMACEUTICALLY ACCEPTABLE SALT THEREOF, PREPARATION METHOD, AND USE” (JIANGSU HENGRUI PHARMACEUTICALS CO., LTD., priority 2023, published 2026).
Counter-ions that a name gives are not always drawn. Like-named read-outs stand apart in the source and are kept apart here.

Tests used:
[1] = Method: Long-term/accelerated stability study: Samples of the free-state form were sealed in aluminum foil bags and left to stand under 25° C./60% RH and 40° C./75% RH conditions to study its stability.
Long-term/accelerated stability of salt forms: Samples were sealed in aluminum foil bags and left to stand under 25° C./60% RH and 40° C./75% RH conditions to study their stability.

Remark: listed apart in the source
[2] = high-temperature and high-humidity conditions
Method: Influencing factor stability study: Samples of the free-state form were taken, spread in open containers, and left to stand under high-temperature (40° C. and 60° C.) and high-humidity (RH 75% and RH 92.5%) conditions for 30 days to study its stability.
Influencing factor stability study of salt forms: Samples of the salt forms were taken, spread in open containers, and left to stand under high-temperature (40° C. and 60° C.) and high-humidity (RH 75%) conditions for 30 days to study their stability.

[3] = long-term accelerated conditions for 6 months

Question: Which “stability (in words)” value ([1]; long-term conditions for 6 months) does the source give for `C[C@H]1CC2(CCN(c3ccc(C(=O)N4CCC(CN5CCN(c6cccc(N[C@H]7CCC(=O)NC7=O)c6)CC5)CC4)cc3F)CC2)CN1c1ccc(C#N)c(Cl)c1` [Amorphous form of maleate] here?
Answer: good chemical and physical stability

Question: With `C[C@H]1CC2(CCN(c3ccc(C(=O)N4CCC(CN5CCN(c6cccc(N[C@H]7CCC(=O)NC7=O)c6)CC5)CC4)cc3F)CC2)CN1c1ccc(C#N)c(Cl)c1` [Crystal form B of succinate] as the compound, how does the “stability (in words)” value [1, 3] read?
Answer: good chemical and physical stability

Question: Which results are given for `C[C@H]1CC2(CCN(c3ccc(C(=O)N4CCC(CN5CCN(c6cccc(N[C@H]7CCC(=O)NC7=O)c6)CC5)CC4)cc3F)CC2)CN1c1ccc(C#N)c(Cl)c1` [crystal form A of D-mandelate]?
Answer: crystal form before and after DVS testing (XRPD): the crystal form did not change before and after DVS testing; desorption versus adsorption process (humidity 0% to 95% RH): the desorption process of the sample overlapped with its adsorption process; stability (in words) ([1]; long-term accelerated conditions for 6 months, listed as crystal form A of mandelate): good chemical and physical stability

Question: With `C[C@H]1CC2(CCN(c3ccc(C(=O)N4CCC(CN5CCN(c6cccc(N[C@H]7CCC(=O)NC7=O)c6)CC5)CC4)cc3F)CC2)CN1c1ccc(C#N)c(Cl)c1` [free-state amorphous form] as the compound, how does the “stability (in words)” value [1, 3] read?
Answer: good physical and chemical stability

Question: What about the “stability (in words)” value [2] of the same compound?
Answer: good chemical stability
